Consider 7 molecules from PubChem BioAssay (NCI).

Test systems include SF-539 CNS; NCI/ADR-RES ovarian; OVCAR-3 ovarian; NCI-H522 lung; HCT-15 colon; KM12 colon; IGROV1 ovarian; CCRF-CEM leukemia; NCI-H460 lung; A498 renal; OVCAR-8 ovarian; SK-MEL-2 melanoma; SNB-75 CNS; SW-620 colon; SK-MEL-28 melanoma; UO-31 renal; M14 melanoma; HT29 colon; SK-OV-3 ovarian.
What all share (assay): growth of human tumour cells (NCI), 48 h

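Protocol summary: plate cells (96-well), add compound at 5 concentrations, incubate 48 h, interpolate endpoints linearly. TGI marks complete inhibition of growth.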

For the molecule `NC(=O)SCCC(N)C(=O)O` (stereo not drawn), the TGI with SF-539 CNS, with NCI/ADR-RES ovarian, in the assay with OVCAR-3 ovarian, in the assay on NCI-H522 lung, in the assay with HCT-15 colon and in the assay on KM12 colon was above 100 µM throughout. Moreover, the TGI in the assay with IGROV1 ovarian, with CCRF-CEM leukemia, in the assay on NCI-H460 lung, in the assay with A498 renal, in the assay on OVCAR-8 ovarian and in the assay on SK-MEL-2 melanoma was above 100 µM in each case. In addition, the TGI with SNB-75 CNS, in the assay on SW-620 colon, in the assay on SK-MEL-28 melanoma, with UO-31 renal, in the assay with M14 melanoma and in the assay on HT29 colon was above 100 µM in each case. The TGI in the assay on SK-OV-3 ovarian was above 100 µM.

As for `CCN(CC)c1ccc(/C=C/C(=O)c2cc(C(C)(C)C)c(O)c(C(C)(C)C)c2)cc1`, the TGI in the assay with SF-539 CNS is 10.5 µM; in the assay on NCI/ADR-RES ovarian it was 26.9 µM; with OVCAR-3 ovarian, above 100 µM; in the assay on NCI-H522 lung, 10.2 µM; with HCT-15 colon, above 100 µM; in the assay on KM12 colon, above 30.3 µM. For the same molecule, the TGI is above 100 µM with IGROV1 ovarian; above 66 µM in the assay on CCRF-CEM leukemia; 38.2 µM in the assay with NCI-H460 lung; above 100 µM in the assay on A498 renal; above 100 µM in the assay with OVCAR-8 ovarian; above 71.5 µM with SK-MEL-2 melanoma. Further, the TGI with SNB-75 CNS was above 100 µM; in the assay on SW-620 colon it was above 100 µM; in the assay with SK-MEL-28 melanoma it was above 100 µM; in the assay with UO-31 renal, above 100 µM; in the assay on M14 melanoma it was above 93.9 µM; in the assay on HT29 colon, 9.52 µM. In the assay with SK-OV-3 ovarian, this molecule displayed a TGI above 100 µM.

On to `OC(c1ccc2c(c1)OCO2)c1ccc2c(c1)OCO2`, for which the TGI in the assay on SF-539 CNS, in the assay on NCI/ADR-RES ovarian, in the assay on OVCAR-3 ovarian, in the assay on NCI-H522 lung, in the assay with HCT-15 colon and in the assay with KM12 colon was above 100 µM each time. Also, the TGI in the assay on IGROV1 ovarian, with CCRF-CEM leukemia, in the assay with NCI-H460 lung, with A498 renal, in the assay with OVCAR-8 ovarian and in the assay with SK-MEL-2 melanoma was above 100 µM each time. Moreover, the TGI in the assay on SNB-75 CNS, with SW-620 colon, in the assay on SK-MEL-28 melanoma, in the assay on UO-31 renal, with M14 melanoma and in the assay on HT29 colon was above 100 µM throughout. In the assay on SK-OV-3 ovarian, this molecule came in with a TGI above 100 µM.

Turning to `CN1C(=O)C(O)CC1c1ccccc1C(F)(F)F` (stereo not drawn), the TGI in the assay with SF-539 CNS, with NCI/ADR-RES ovarian, in the assay on OVCAR-3 ovarian, in the assay on NCI-H522 lung, with HCT-15 colon and in the assay on KM12 colon was above 100 µM throughout. The TGI in the assay with IGROV1 ovarian, in the assay on CCRF-CEM leukemia, in the assay on NCI-H460 lung, with A498 renal, in the assay on OVCAR-8 ovarian and in the assay with SK-MEL-2 melanoma was above 100 µM throughout. Moreover, the TGI in the assay with SNB-75 CNS, in the assay on SW-620 colon, with SK-MEL-28 melanoma, in the assay with UO-31 renal, in the assay with M14 melanoma and in the assay on HT29 colon was above 100 µM in each case. The TGI in the assay on SK-OV-3 ovarian is above 100 µM.

Regarding `COc1cccc(Nc2nc(N)nc(N)c2N)c1`, the TGI in the assay with SF-539 CNS, in the assay with NCI/ADR-RES ovarian, in the assay with OVCAR-3 ovarian, in the assay with NCI-H522 lung, in the assay with HCT-15 colon and in the assay with KM12 colon was above 100 µM each time. The TGI in the assay with IGROV1 ovarian is above 100 µM; in the assay on CCRF-CEM leukemia it was 52.7 µM; with NCI-H460 lung, 43.6 µM; in the assay on A498 renal it was above 100 µM; with OVCAR-8 ovarian it was above 100 µM; with SK-MEL-2 melanoma it was above 100 µM. Besides, the TGI was above 100 µM in the assay with SNB-75 CNS; 91.1 µM in the assay on SW-620 colon; above 100 µM with SK-MEL-28 melanoma; above 100 µM with UO-31 renal; above 100 µM in the assay on M14 melanoma; above 100 µM with HT29 colon. Also, the TGI in the assay with SK-OV-3 ovarian was above 100 µM.

Regarding `ON[C@H]1C[C@@H](n2cnc3c(NC4CC4)ncnc32)[C@H](O)[C@@H]1O`, the TGI in the assay on SF-539 CNS, in the assay with NCI/ADR-RES ovarian, with OVCAR-3 ovarian, in the assay on NCI-H522 lung, in the assay with HCT-15 colon and in the assay on KM12 colon was above 100 µM each time. Moreover, the TGI with IGROV1 ovarian, in the assay with CCRF-CEM leukemia, in the assay on NCI-H460 lung, in the assay on A498 renal, with OVCAR-8 ovarian and in the assay on SK-MEL-2 melanoma was above 100 µM in each case. In addition, the TGI with SNB-75 CNS, in the assay on SW-620 colon, in the assay on SK-MEL-28 melanoma, with UO-31 renal, in the assay with M14 melanoma and in the assay on HT29 colon was above 100 µM each time. The TGI with SK-OV-3 ovarian is above 100 µM.

`CN(C)c1ccc(C2CC(c3ccc4ccccc4c3O)=NN2c2ccc([N+](=O)[O-])cc2[N+](=O)[O-])cc1` (stereo not drawn): the TGI in the assay on SF-539 CNS, in the assay with NCI/ADR-RES ovarian, in the assay on OVCAR-3 ovarian, in the assay on NCI-H522 lung, in the assay on HCT-15 colon and in the assay with KM12 colon was above 100 µM in each case. Further, the TGI with IGROV1 ovarian was above 100 µM; in the assay with CCRF-CEM leukemia, 94.3 µM; in the assay on NCI-H460 lung, above 100 µM; in the assay on A498 renal, above 100 µM; in the assay with OVCAR-8 ovarian, above 100 µM; in the assay with SK-MEL-2 melanoma, above 100 µM. Moreover, the TGI in the assay with SNB-75 CNS, with SW-620 colon, in the assay on SK-MEL-28 melanoma, in the assay on UO-31 renal, in the assay on M14 melanoma and in the assay with HT29 colon was above 100 µM in each case. The molecule also showed a TGI in the assay on SK-OV-3 ovarian above 100 µM.
